Target: Hydroxycarboxylic acid receptor 2 (Homo sapiens) (UniProt Q8TDS4)
Experiment: Displacement of [3H]nicotinic acid from human GPR109a receptor expressed in human HEK293T cells at 10 uM by liquid scintillation counting
Assay type: cell-based
Conditions: HEK-293T

Chain of Hydroxycarboxylic acid receptor 2 (Homo sapiens) (Q8TDS4 whole entry): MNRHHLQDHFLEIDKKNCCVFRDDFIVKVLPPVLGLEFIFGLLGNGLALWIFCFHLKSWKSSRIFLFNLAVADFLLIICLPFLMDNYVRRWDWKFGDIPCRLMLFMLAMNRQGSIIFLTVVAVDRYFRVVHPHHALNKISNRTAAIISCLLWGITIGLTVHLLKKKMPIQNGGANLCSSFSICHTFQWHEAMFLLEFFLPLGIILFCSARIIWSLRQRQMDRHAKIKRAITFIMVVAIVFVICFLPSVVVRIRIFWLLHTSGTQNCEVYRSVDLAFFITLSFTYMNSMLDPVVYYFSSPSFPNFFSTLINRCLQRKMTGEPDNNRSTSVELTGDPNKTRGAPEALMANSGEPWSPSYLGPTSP

Activity | SMILES
0% | COc1cc(/C=C/C(=O)O)ccc1O
10% | O=C(O)/C=C/C(=O)O
